# Measurements: ChEMBL document CHEMBL5528049, “Discovery of (4-Pyrazolyl)-2-aminopyrimidines as Potent and Selective Inhibitors of Cyclin-Dependent Kinase 2” (J Med Chem, 2024)
# Assays:
# [1] = biological target: Cyclin-dependent kinase 2/cyclin E1 (Homo sapiens, UniProt P24941); experiment: Inhibition of N-terminal GST-tagged full-length human CDK2(1 to 298 residues) /FLAG-tagged human Cyclin E1 (1 to 410 residues) expressed in baculovirus-infected Sf21 cells incubated for 60 mins in presence of ATP by HTRF assay
# [2] = biological target: Cyclin-dependent kinase 1/cyclin B1 (Homo sapiens, UniProt P06493); experiment: Inhibition of N-terminal GST-tagged full length human CDK1 (1 to 297 residues)/human Cyclin B1 (1 to 433 residues) expressed in baculovirus infected Sf21 cells incubated for 60 mins in presence of ATP by HTRF assay
# [3] = organism: Homo sapiens; experiment: Selectivity index, ratio of IC50 for inhibition of N-terminal GST-tagged full length human CDK1 (1 to 297 residues)/human Cyclin B1 (1 to 433 residues) expressed in baculovirus infected Sf21 cells to IC50 for inhibition of N-terminal GST-tagged full-length human CDK2(1 to 298 residues) /FLAG-tagged human Cyclin E1 (1 to 410 residues) expressed in baculovirus-infected Sf21 cells
# [4] = biological target: Cyclin-dependent kinase 4/cyclin D1 (Homo sapiens, UniProt P11802); experiment: Inhibition of N-terminal GST-tagged human CDK4 (4 to 303 residues)/N-terminal GST-tagged human Cyclin D1 (4 to 295 residues) expressed in Sf9 insect cells incubated for 60 mins in presence of ATP by HTRF assay
# [5] = biological target: CDK6/cyclin D3 (Homo sapiens, UniProt Q00534); experiment: Inhibition of N-terminal GST-tagged human CDK6 (1 to 326 residues)/N-terminal 6-His fused human Cyclin D3 (1 to 292 residues) expressed in Sf9 insect cells incubated for 60 mins by HTRF assay
# [6] = Solubility of compound in SGF by HPLC analysis
# [7] = Intrinsic clearance in human liver microsomes at 1 uM measured upto 30 mins by LC/MS analysis; type: ADME, Microsome; conditions: read-out: CLH (converted)
# [8] = biological target: Cyclin-dependent kinase 2 (Homo sapiens, UniProt P24941); experiment: Inhibition of CDK2 in human whole blood spiked with CCNE1-amplified human COV318 cells assessed as reduction in retinoblastoma protein phosphorylation at S780 residue incubated overnight by HTRF microplate reader; type: cell-based
# [9] = biological target: Tyrosine-protein kinase JAK2 (Homo sapiens, UniProt O60674); experiment: Inhibition of JAK2 (unknown origin) incubated for 90 mins in presence of ATP by fluorescence microplate reader
# [10] = Protein binding in human plasma assessed as free fraction incubated for 2 hrs by LC-MS/MS analysis; type: ADME, cell-free
# [11] = Apparent permeability from apical to basolateral side in human Caco-2 cells at 50 uM incubated for 120 mins by LCMS analysis
# [12] = AUC in Sprague-Dawley rat at 3 mg/kg, po administered as cassette dose and measured upto 24 hrs by LC-MS/MS analysis; type: ADME, organism-based; conditions: in vivo
# [13] = Cmax in Sprague-Dawley rat at 3 mg/kg, po administered as cassette dose and measured upto 24 hrs by LC-MS/MS analysis; type: ADME, organism-based; conditions: in vivo
# [14] = Oral bioavailability in Sprague-Dawley rat at 3 mg/kg administered as cassette dose and measured upto 24 hrs by LC-MS/MS analysis; type: ADME, organism-based; conditions: in vivo
# [15] = Hepatic blood flow in cynomolgus monkey at 0.5 mg/kg, iv administered as cassette dose and measured upto 24 hrs by LC-MS/MS analysis; type: ADME, organism-based, Macaca fascicularis; conditions: in vivo
# [16] = Half-life in cynomolgus monkey at 0.5 mg/kg, iv administered as cassette dose and measured upto 24 hrs by LC-MS/MS analysis; type: ADME, organism-based, Macaca fascicularis; conditions: in vivo
# [17] = Volume of distribution at steady state in cynomolgus monkey at 0.5 mg/kg, iv administered as cassette dose and measured upto 24 hrs by LC-MS/MS analysis; type: ADME, organism-based, Macaca fascicularis; conditions: in vivo, read-out: Vdss
# [18] = Hepatic blood flow in Sprague-Dawley rat at 0.43 mg/kg, iv administered as cassette dose and measured upto 24 hrs by LC-MS/MS analysis; type: ADME, organism-based; conditions: in vivo
# [19] = Half-life in Sprague-Dawley rat at 0.43 mg/kg, iv administered as cassette dose and measured upto 24 hrs by LC-MS/MS analysis; type: ADME, organism-based; conditions: in vivo
# [20] = Volume of distribution at steady state in Sprague-Dawley rat at 0.43 mg/kg, iv administered as cassette dose and measured upto 24 hrs by LC-MS/MS analysis; type: ADME, organism-based; conditions: in vivo, read-out: Vdss
# [21] = AUC in cynomolgus monkey at 3 mg/kg, po administered as cassette dose and measured upto 24 hrs by LC-MS/MS analysis; type: ADME, organism-based, Macaca fascicularis; conditions: in vivo
# [22] = Cmax in cynomolgus monkey at 3 mg/kg, po administered as cassette dose and measured upto 24 hrs by LC-MS/MS analysis; type: ADME, organism-based, Macaca fascicularis; conditions: in vivo
# [23] = Oral bioavailability in cynomolgus monkey at 3 mg/kg administered as cassette dose and measured upto 24 hrs by LC-MS/MS analysis; type: ADME, organism-based, Macaca fascicularis; conditions: in vivo
# [24] = Hepatic blood flow in Sprague-Dawley rat at 0.5 mg/kg, iv administered as cassette dose and measured upto 24 hrs by LC-MS/MS analysis; type: ADME, organism-based; conditions: in vivo
# [25] = Half-life in Sprague-Dawley rat at 0.5 mg/kg, iv administered as cassette dose and measured upto 24 hrs by LC-MS/MS analysis; type: ADME, organism-based; conditions: in vivo
# [26] = Volume of distribution at steady state in Sprague-Dawley rat at 0.5 mg/kg, iv administered as cassette dose and measured upto 24 hrs by LC-MS/MS analysis; type: ADME, organism-based; conditions: in vivo, read-out: Vdss
# [27] = AUC in cynomolgus monkey at 1.5 mg/kg, po administered as cassette dose and measured upto 24 hrs by LC-MS/MS analysis; type: ADME, organism-based, Macaca fascicularis; conditions: in vivo
# [28] = Cmax in cynomolgus monkey at 1.5 mg/kg, po administered as cassette dose and measured upto 24 hrs by LC-MS/MS analysis; type: ADME, organism-based, Macaca fascicularis; conditions: in vivo
# [29] = Oral bioavailability in cynomolgus monkey at 1.5 mg/kg administered as cassette dose and measured upto 24 hrs by LC-MS/MS analysis; type: ADME, organism-based, Macaca fascicularis; conditions: in vivo
Compound,IC50 [1],IC50 [2],Ratio IC50 [3],IC50 [4],IC50 [5],solubility [6],CLint scaled at 1 µM [7],IC50 [8],fraction unbound at 2 h [10],"Papp A→B at 2 h, 50 µM [11]",further results
CS(=O)(=O)N1CCC(Nc2ncc(C(F)(F)F)c(-c3cnn(CC(F)(F)F)c3)n2)CC1,1.8 nM,205 nM,110,11 nM,22 nM,3 µg/mL,< 8.33 mL/min/kg,709 nM,–,–,–
CS(=O)(=O)N1CCC(Nc2ncc(Cl)c(-c3cnn(C4CCOCC4)c3)n2)CC1,16 nM,1020 nM,–,–,–,–,–,–,–,–,IC50 [9]: > 10000 nM
CS(=O)(=O)N1CCC(Nc2ncc(C(F)(F)F)c(-c3cnn(-c4ccc(C#N)cc4Cl)c3)n2)CC1,–,–,–,–,–,–,8.33 mL/min/kg,–,0.012,–,–
CS(=O)(=O)N1CCC(Nc2ncc(C(F)(F)F)c(-c3cnn(-c4ccccc4F)c3)n2)CC1,–,–,–,14 nM,31 nM,46 µg/mL,< 8.33 mL/min/kg,5110 nM,–,–,–
Cn1cnc(S(=O)(=O)N2CCC(Nc3ncc(C(F)(F)F)c(-c4cnn(CC(F)(F)F)c4)n3)CC2)c1,–,–,–,–,–,322 µg/mL,10 mL/min/kg,–,0.076,5.4 ×10⁻⁶ cm/s,AUC at 24 h [12]: 6.95 µM·h; Cmax [13]: 813 nM; bioavailability [14]: 48%; QH [15]: 4.3%; half-life [16]: 3.2 h; Vd [17]: 0.37 L/kg; QH [18]: 12%; half-life [19]: 3.3 h; Vd [20]: 1.4 L/kg; AUC at 24 h [21]: 7.59 µM·h; Cmax [22]: 778 nM; bioavailability [23]: 8%
CS(=O)(=O)N1CCC(Nc2ncc(C(F)(F)F)c(-c3cnn(C4CCOCC4)c3)n2)CC1,3.2 nM,407 nM,130,–,–,–,–,–,–,–,IC50 [9]: > 10000 nM
CC(C)(O)Cn1cc(-c2nc(NC3CCN(S(=O)(=O)C4CC4)CC3)ncc2C#N)cn1,–,–,–,–,–,41 µg/mL,< 8.33 mL/min/kg,–,0.35,4.3 ×10⁻⁶ cm/s,–
CS(=O)(=O)N1CCC(Nc2ncc(C(F)(F)F)c(-c3cnn(C4CCCCC4)c3)n2)CC1,2 nM,257 nM,130,3.2 nM,10 nM,11 µg/mL,18.3 mL/min/kg,5050 nM,–,–,–
CS(=O)(=O)N1CCC(Nc2ncc(C(F)(F)F)c(-c3cnn(-c4ccccc4Cl)c3)n2)CC1,0.56 nM,90 nM,160,10 nM,24 nM,–,16.7 mL/min/kg,823 nM,–,–,–
CC(C)(O)Cn1cc(-c2nc(NC3CCN(S(C)(=O)=O)CC3)ncc2C(F)(F)F)cn1,0.42 nM,63 nM,150,37 nM,160 nM,842 µg/mL,< 8.33 mL/min/kg,1210 nM,–,–,–
Cn1cnc(S(=O)(=O)N2CCC(Nc3ncc(C#N)c(-c4cnn(CC(F)(F)F)c4)n3)CC2)c1,–,–,–,–,–,5 µg/mL,< 8.33 mL/min/kg,–,–,0.6 ×10⁻⁶ cm/s,–
CNCc1ccc(-n2cc(-c3nc(NC4CCN(S(C)(=O)=O)CC4)ncc3C#N)cn2)c(Cl)c1,–,–,–,–,–,–,10 mL/min/kg,–,0.33,–,AUC at 24 h [12]: 3.5 µM·h; Cmax [13]: 412 nM; bioavailability [14]: 69%; QH [24]: 36%; half-life [25]: 3.8 h; Vd [26]: 5.7 L/kg; AUC at 24 h [27]: 0.923 µM·h; Cmax [28]: 93 nM; bioavailability [29]: 20%; QH [15]: 26%; half-life [16]: 6 h; Vd [17]: 4.4 L/kg
CN1CCC(n2cc(-c3nc(NC4CCN(S(C)(=O)=O)CC4)ncc3C(F)(F)F)cn2)CC1,6.1 nM,174 nM,29,20 nM,153 nM,> 400 µg/mL,11.7 mL/min/kg,708 nM,–,–,–
Cc1cnc(Nc2ccc(NS(C)(=O)=O)cc2)nc1-c1cnn(C(CC#N)C2CCCC2)c1 (racemic),607 nM,–,–,–,–,–,–,–,–,–,IC50 [9]: < 1 nM
Cn1cc(S(=O)(=O)N2CCC(Nc3ncc(C(F)(F)F)c(-c4cnn(CC(F)(F)F)c4)n3)CC2)cn1,–,–,–,–,–,< 1 µg/mL,8.33 mL/min/kg,–,0.059,19 ×10⁻⁶ cm/s,–
N#Cc1cnc(NC2CCN(S(=O)(=O)c3ccccn3)CC2)nc1-c1cnn(CC(F)(F)F)c1,–,–,–,–,–,< 1 µg/mL,13.3 mL/min/kg,–,0.035,18 ×10⁻⁶ cm/s,–
